The subject of one assay is HCT116 WT cells. The assay is described as follows: HCT116 WT cell proliferation / viability (CellTiter-Glo, 6 days). The class given is cell-based. Particulars: Homo sapiens, HCT-116, 144 h, HCT116 WT cells, 6 days, CellTiter-Glo; read-out: HCT-116 WT IC50. An outline of the steps:
(§1)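 Viability read by CellTiter-Glo after 6-day compound exposure of MTAP-null and wild-type HCT116 cells grown in RPMI 1640 with 10% FBS. Dosing used 1:3 steps from 1 or 10 μM (8-9 points) or 1:2 steps from 10 or 50 μM (22 points); IC50 taken where fitted curve crosses 50% of control.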
(In general: Cellular ATP, detected with luciferase, serves as a proxy for viable cell number.)

Another assay has as its system HCT116 MTAP null cells. The assay is described as follows: HCT116 MTAP null cell proliferation / viability (CellTiter-Glo, 6 days). The format is cell-based. Particulars: HCT116-MTAP null, 144 h, HCT116 MTAP null cells, 6 days, CellTiter-Glo; read-out: HCT-116 MTAP null IC50. The gist of the method: as §1

Molecules are shown by their SMILES. A value given as a limit tells only on which side of the number the result lay.

A word on the IC50: it is the concentration at which inhibition is half-maximal. Take `CCN(Cc1ccc(C(F)(F)F)cn1)C(=O)c1cc2c3c(c(N)nc2cn1)[C@@H](C)OC3` [Example 408, (3R)-4-amino-N-ethyl-3-methyl-N-((5-(trifluoromethyl)-2-pyridinyl)methyl)-1,3-dihydrofuro[3,4-c][1,7]naphthyridine-8-carboxamide]: the figures for the IC50 with HCT116 WT cells and in the assay on HCT116 MTAP null cells were 3350 nM and 86 nM, respectively.
Taken in the same sequence, the figures for `CCOc1ccc(CN(C(=O)c2cc3c4c(c(N)nc3cn2)COC4)[C@H](C)c2ncccn2)nn1` [Example 749, 4-amino-N-((6-ethoxy-3-pyridazinyl)methyl)-N-((1R)-1-(2-pyrimidinyl)ethyl)-1,3-dihydrofuro[3,4-c][1,7]naphthyridine-8-carboxamide] were 3340 nM and 177 nM.
Taken in the same sequence, the figures for `C[C@H]1OCc2c1c(N)nc1ccc(C(=O)N(Cc3ccc(C(F)(F)F)cn3)CC(F)(F)F)cc21` [Example 481, (3R)-4-amino-3-methyl-N-(2,2,2-trifluoroethyl)-N-((5-(trifluoromethyl)-2-pyridinyl)methyl)-1,3-dihydrofuro[3,4-c]quinoline-8-carboxamide] were 5710 nM and 74 nM.
Taken in the same sequence, the figures for `Cn1ncc2c3cc(C(=O)N(Cc4ccc(C(F)(F)F)cn4)C4(C)CC4)ccc3nc(N)c21` [Example 494, 4-amino-3-methyl-N-(1-methylcyclopropyl)-N-((5-(trifluoromethyl)-2-pyridinyl)methyl)-3H-pyrazolo[3,4-c]quinoline-8-carboxamide] were 9070 nM and 282 nM.
Turning to `Cc1ccc(CN(C)C(=O)c2cc3c(cc2F)nc(N)c2cnn(C)c23)nc1` [Example 769, 4-amino-7-fluoro-N,1-dimethyl-N-((5-methyl-2-pyridinyl)methyl)-1H-pyrazolo[4,3-c]quinoline-8-carboxamide], the IC50 with HCT116 WT cells is 7500 nM; in the assay on HCT116 MTAP null cells, 115 nM.
Taken in the same sequence, the figures for `CC(C)N(Cc1ccc(C#N)cn1)C(=O)c1ccc2nc(N)c3c(c2c1)COC3` [Example 301, 4-amino-N-((5-cyano-2-pyridinyl)methyl)-N-(2-propanyl)-1,3-dihydrofuro[3,4-c]quinoline-8-carboxamide] were 11000 nM and 259 nM.
On to `COC[C@@H](C)N(Cc1ccc(Br)nn1)C(=O)c1cc2c3c(c(N)nc2cn1)[C@@H](C)OC3` [Example 410, (3R)-4-amino-N-((6-bromo-3-pyridazinyl)methyl)-N-((2R)-1-methoxy-2-propanyl)-3-methyl-1,3-dihydrofuro[3,4-c][1,7]naphthyridine-8-carboxamide], for which the IC50 with HCT116 WT cells came to 3260 nM; in the assay on HCT116 MTAP null cells, 87 nM.
Turning to `CC(C)N(Cc1ccc(C(F)(F)F)nn1)C(=O)c1cc2c3c(c(N)nc2cn1)[C@@H](C)OC3` [Example 313, (3R)-4-amino-3-methyl-N-(2-propanyl)-N-((6-(trifluoromethyl)-3-pyridazinyl)methyl)-1,3-dihydrofuro [3,4-c][1,7]naphthyridine-8-carboxamide], the IC50 was found to be 3680 nM with HCT116 WT cells and 200 nM in the assay on HCT116 MTAP null cells.
With `CCN(C(=O)c1ccc2nc(N)c3c(c2c1)COC3)[C@H](C)c1ccc(C(F)(F)F)cn1` (single isomer, unassigned) [Example 822], the IC50 came out at 12000 nM with HCT116 WT cells and 323 nM in the assay on HCT116 MTAP null cells.
Consider `CC(C)N(Cc1ccc(C2CC2)cn1)C(=O)c1ccc2nc(N)c3c(c2c1)CO[C@@H]3C` [Example 377, (3R)-4-amino-N-((5-cyclopropyl-2-pyridinyl)methyl)-3-methyl-N-(2-propanyl)-1,3-dihydrofuro[3,4-c]quinoline-8-carboxamide], for which the results for the IC50 in the assay on HCT116 WT cells and with HCT116 MTAP null cells were 2060 nM and 49 nM, respectively.
In the same order, the values of `Cn1ncc2c3cc(C(=O)N(Cc4ccc(C(F)(F)F)nn4)C4CCC4)c(F)cc3nc(N)c21` [Example 504, 4-amino-N-cyclobutyl-7-fluoro-3-methyl-N-((6-(trifluoromethyl)-3-pyridazinyl)methyl)-3H-pyrazolo[3,4-c]quinoline-8-carboxamide] are 1850 nM and 56 nM.
As to `C[C@H]1OCc2c1c(N)nc1cc(F)c(C(=O)N(Cc3ccc(OCC(F)(F)F)nn3)CC3CC3)cc21` [Example 818, (3R)-4-amino-N-(cyclopropylmethyl)-7-fluoro-3-methyl-N-((6-(2,2,2-trifluoroethoxy)-3-pyridazinyl)methyl)-1,3-dihydrofuro[3,4-c]quinoline-8-carboxamide], the IC50 was found to be 161 nM with HCT116 WT cells and 7 nM in the assay on HCT116 MTAP null cells.
Taken in the same sequence, the figures for `CCN(C(=O)c1cc2c(cc1F)nc(N)c1cnn(C)c12)[C@@H](C)c1ccc(F)cn1` (single isomer, unassigned) [Example 876] were 30400 nM and 334 nM.
On to `CN(Cc1ccc(C(F)(F)F)nn1)C(=O)c1cc2c3c(c(N)nc2cc1F)COC3` [Example 359, 4-amino-7-fluoro-N-methyl-N-((6-(trifluoromethyl)-3-pyridazinyl)methyl)-1,3-dihydrofuro[3,4-c]quinoline-8-carboxamide], for which the values for the IC50 with HCT116 WT cells and with HCT116 MTAP null cells were 10200 nM and 226 nM, respectively.
Take `C[C@@H](c1ccc(C(F)(F)F)cn1)N(C(=O)c1cc2c3c(c(N)nc2cn1)COC3)c1cnn(C)c1` (single isomer, unassigned) [Example 826]: the IC50 in the assay with HCT116 WT cells is 27100 nM; in the assay with HCT116 MTAP null cells, 6720 nM.
With `CC(C)N(Cc1ccc(Br)nn1)C(=O)c1ccc2nc(N)c3c(c2c1)CO[C@@H]3C` [Example 332, (3R)-4-amino-N-((6-bromo-3-pyridazinyl)methyl)-3-methyl-N-(2-propanyl)-1,3-dihydrofuro[3,4-c]quinoline-8-carboxamide], the IC50 in the assay with HCT116 WT cells worked out at 6100 nM; in the assay with HCT116 MTAP null cells, 120 nM.
Taken in the same sequence, the figures for `C[C@H](c1ccc(C(F)(F)F)cc1)N(C)C(=O)c1cc2c(cn1)nc(N)c1cnn(C)c12` (single isomer, unassigned) [Example 598] were 415 nM and 8 nM.
Take `CCN(Cc1cnc(C(F)(F)F)cn1)C(=O)c1ccc2nc(N)c3c(c2c1)CO[C@@H]3C` [Example 500, (3R)-4-amino-N-ethyl-3-methyl-N-((5-(trifluoromethyl)-2-pyrazinyl)methyl)-1,3-dihydrofuro[3,4-c]quinoline-8-carboxamide]: the IC50 in the assay on HCT116 WT cells came out at 32500 nM; with HCT116 MTAP null cells, 595 nM.
Consider `C[C@H](c1ncccn1)N(Cc1ccc(C(F)(F)F)cn1)C(=O)c1ccc2nc(N)c3c(c2c1)CCCC3` [Example 654, 6-amino-N-((1R)-1-(2-pyrimidinyl)ethyl)-N-((5-(trifluoromethyl)-2-pyridinyl)methyl)-7,8,9,10-tetrahydro-2-phenanthridinecarboxamide], for which the IC50 turned out to be 171 nM with HCT116 WT cells and 9 nM in the assay with HCT116 MTAP null cells.
In the same order, the values of `CN(Cc1ccc(C#N)cn1)C(=O)c1cc2c3c(c(N)nc2cn1)COC3` [Example 367, 4-amino-N-((5-cyano-2-pyridinyl)methyl)-N-methyl-1,3-dihydrofuro[3,4-c][1,7]naphthyridine-8-carboxamide] are greater than 50000 nM and 2280 nM.
Consider `CC[C@@H](c1cncnc1)N(Cc1ccc(S(F)(F)(F)(F)F)cc1)C(=O)c1cc2c(cn1)nc(N)c1cnn(C)c12` (single isomer, unassigned) [Example 872], for which the IC50 worked out at 4500 nM in the assay with HCT116 WT cells and 75 nM in the assay with HCT116 MTAP null cells.
Consider `C[C@H](c1ccc(-c2ccc(C(F)(F)F)cc2)nn1)N(C)C(=O)c1ccc2nc(N)c3cnn(C)c3c2c1` [Example 532, 4-amino-N,1-dimethyl-N-((1R)-1-(6-(4-(trifluoromethyl)phenyl)-3-pyridazinyl)ethyl)-1H-pyrazolo[4,3-c]quinoline-8-carboxamide], for which the IC50 in the assay on HCT116 WT cells worked out at 2030 nM; in the assay with HCT116 MTAP null cells, 37 nM.
Taken in the same sequence, the figures for `Nc1nc2cnc(C(=O)N(Cc3ccc(C(F)(F)F)nn3)CC(F)(F)F)cc2c2c1COC2` [Example 712, 4-amino-N-(2,2,2-trifluoroethyl)-N-((6-(trifluoromethyl)-3-pyridazinyl)methyl)-1,3-dihydrofuro[3,4-c][1,7]naphthyridine-8-carboxamide] were greater than 50000 nM and 2000 nM.
As for `CCOc1ccc(CN(CC2CC2)C(=O)c2ccc3nc(N)c4c(c3c2)CO[C@@H]4C)nn1` [Example 766, (3R)-4-amino-N-(cyclopropylmethyl)-N-((6-ethoxy-3-pyridazinyl)methyl)-3-methyl-1,3-dihydrofuro[3,4-c]quinoline-8-carboxamide], the IC50 worked out at 1910 nM in the assay with HCT116 WT cells and 61 nM with HCT116 MTAP null cells.
Consider `Nc1nc2ccc(C(=O)N(Cc3ccc(C(F)(F)F)nn3)CC3CC3)cc2c2c1COC2` [Example 336, 4-amino-N-(cyclopropylmethyl)-N-((6-(trifluoromethyl)-3-pyridazinyl)methyl)-1,3-dihydrofuro[3,4-c]quinoline-8-carboxamide], for which the IC50 in the assay with HCT116 WT cells was 2570 nM; with HCT116 MTAP null cells, 87 nM.
On to `CC(C)N(Cc1ccc(C(F)(F)F)cn1)C(=O)c1cc2c3c(c(N)nc2cn1)CCO3` [Example 534, 4-amino-N-(2-propanyl)-N-((5-(trifluoromethyl)-2-pyridinyl)methyl)-2,3-dihydrofuro[3,2-c][1,7]naphthyridine-8-carboxamide], for which the IC50 with HCT116 WT cells is 5580 nM; in the assay on HCT116 MTAP null cells it was 581 nM.
Consider `CCN(Cc1ccc(C(F)(F)F)nn1)C(=O)c1cc2c(cc1F)nc(N)c1cnn(C)c12` [Example 555, 4-amino-N-ethyl-7-fluoro-1-methyl-N-((6-(trifluoromethyl)-3-pyridazinyl)methyl)-1H-pyrazolo[4,3-c]quinoline-8-carboxamide], for which the IC50 with HCT116 WT cells amounted to 2040 nM; in the assay on HCT116 MTAP null cells, 23 nM.

Values taken from patent US20240101570A1 (AMGEN INC., priority 2020, published 2024).
